Measurements from patent US9447042B2, “Endoparasite control agent” (THE UNIVERSITY OF TOKYO, priority 2011, dated 2016).
Where two headings read alike, the source gives them in different places.

What was measured:
[1] = target: T1, Porcine succinate-ubiquinone reductase (mitochondrial complex II) (Sus scrofa, UniProt A5GZW8+D0VWV4+Q007T0); experiment: In vitro inhibitory activity on porcine succinate-ubiquinone reductase (mitochondrial complex II); assay type: biochemical, pig
T1 construct: from tissue; host or cells: mitochondria from porcine heart muscle
T1 sequence (Q007T0 29-280): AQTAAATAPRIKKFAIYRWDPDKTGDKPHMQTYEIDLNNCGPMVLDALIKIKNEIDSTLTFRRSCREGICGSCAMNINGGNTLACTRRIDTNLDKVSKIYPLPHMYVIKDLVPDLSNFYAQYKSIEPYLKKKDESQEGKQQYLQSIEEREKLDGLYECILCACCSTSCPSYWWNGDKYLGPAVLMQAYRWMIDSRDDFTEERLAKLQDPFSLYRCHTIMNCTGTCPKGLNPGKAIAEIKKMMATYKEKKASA
T1 sequence (D0VWV4 30-169): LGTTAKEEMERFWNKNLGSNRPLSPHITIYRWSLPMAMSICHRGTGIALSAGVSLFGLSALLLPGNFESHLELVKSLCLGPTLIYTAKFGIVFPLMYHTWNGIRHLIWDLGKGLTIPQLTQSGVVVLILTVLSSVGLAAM
T1 sequence (A5GZW8 57-159 limits assumed): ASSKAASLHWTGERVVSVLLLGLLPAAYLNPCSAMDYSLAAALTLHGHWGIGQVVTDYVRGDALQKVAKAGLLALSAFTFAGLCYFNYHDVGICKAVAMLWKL
T1 sequence (Q0QF01 43-664 partner): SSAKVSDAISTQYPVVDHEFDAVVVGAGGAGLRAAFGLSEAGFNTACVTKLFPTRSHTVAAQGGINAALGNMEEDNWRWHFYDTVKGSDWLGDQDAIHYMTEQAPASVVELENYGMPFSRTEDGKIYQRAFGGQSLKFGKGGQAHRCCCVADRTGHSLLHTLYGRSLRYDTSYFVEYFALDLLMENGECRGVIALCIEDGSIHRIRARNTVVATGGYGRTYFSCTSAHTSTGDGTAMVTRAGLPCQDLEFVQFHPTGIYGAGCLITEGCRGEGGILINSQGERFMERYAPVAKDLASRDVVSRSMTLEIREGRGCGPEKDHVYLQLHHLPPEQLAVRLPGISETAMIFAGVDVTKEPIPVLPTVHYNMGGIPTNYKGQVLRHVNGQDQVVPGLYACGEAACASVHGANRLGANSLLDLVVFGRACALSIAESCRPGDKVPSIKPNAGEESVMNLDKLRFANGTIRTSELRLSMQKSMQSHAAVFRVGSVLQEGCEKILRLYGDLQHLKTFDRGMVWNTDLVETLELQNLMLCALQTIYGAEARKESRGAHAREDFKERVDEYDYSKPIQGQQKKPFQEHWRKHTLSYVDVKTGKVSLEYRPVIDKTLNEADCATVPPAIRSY
Method: In Vitro Measurement of Inhibitory Activity on Porcine Succinate-Ubiquinone Reductase (Mitochondrial Complex II)
(§1) To a solution containing 50 mM potassium phosphate (pH 7.4) and 0.1% (w/v) sucrose monolaurate, an electron acceptor ubiquinone-2 (UQ2) was added at a final concentration of 60 μM, and the mixture was allowed to stand at 25° C. for 20 minutes. To this, potassium cyanide (final concentration: 2 mM) and mitochondria prepared from porcine heart muscle were added, and thorough mixing was done. To aliquots of the mixture, an inhibitor to be tested was added at various concentrations, and the mixtures were allowed to stand at 25° C. for 3 minutes. The enzymatic reaction was initiated by addition of potassium succinate (final concentration: 10 mM).
(§2) In the table, “-” indicates “not tested,” and “Ascaris suum IC50 value (A)” indicates an IC50 value (50% inhibitory concentration) for inhibition of succinate-ubiquinone reductase (mitochondrial complex II) of Ascaris suum. From the extent of inhibition of this respiratory enzyme, the parasite control activity can be estimated. “Porcine mitochondria IC50 value (B)” indicates an IC50 value for inhibition of succinate-ubiquinone reductase (mitochondrial complex II) of the host pig. From the extent of inhibition of this respiratory enzyme, the influence on the host can be estimated. A greater selectivity index B/A indicates a higher safety for the host.

[2] = target: T2, Ascaris suum succinate-ubiquinone reductase (mitochondrial complex II) (Ascaris suum, UniProt O44074+P92506+P92507); experiment: In vitro inhibitory activity on Ascaris suum succinate-ubiquinone reductase (mitochondrial complex II); assay type: biochemical; details: for Selectivity B/A: porcine IC50 (B) / Ascaris suum IC50 (A)
T2 construct: from tissue; host or cells: mitochondria from adult Ascaris suum muscle
T2 sequence (O44074 22-282): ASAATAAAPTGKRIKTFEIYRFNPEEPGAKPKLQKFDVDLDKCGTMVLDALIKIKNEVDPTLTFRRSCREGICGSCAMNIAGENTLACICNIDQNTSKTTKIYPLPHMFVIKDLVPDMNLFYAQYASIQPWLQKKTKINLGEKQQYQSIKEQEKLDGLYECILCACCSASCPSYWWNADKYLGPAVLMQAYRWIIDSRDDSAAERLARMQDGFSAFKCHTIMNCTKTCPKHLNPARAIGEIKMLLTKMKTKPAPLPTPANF
T2 sequence (P92506 32-188): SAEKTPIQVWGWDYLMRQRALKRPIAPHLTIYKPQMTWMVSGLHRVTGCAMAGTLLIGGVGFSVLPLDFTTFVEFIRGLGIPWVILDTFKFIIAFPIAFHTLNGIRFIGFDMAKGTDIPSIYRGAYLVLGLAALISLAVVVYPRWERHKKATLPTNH
T2 sequence (P92507 26-156): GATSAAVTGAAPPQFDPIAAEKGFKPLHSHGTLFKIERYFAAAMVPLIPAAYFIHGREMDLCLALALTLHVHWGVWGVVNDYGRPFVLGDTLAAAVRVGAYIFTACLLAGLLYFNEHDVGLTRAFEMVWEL
T2 sequence (Q33862 19-645 partner): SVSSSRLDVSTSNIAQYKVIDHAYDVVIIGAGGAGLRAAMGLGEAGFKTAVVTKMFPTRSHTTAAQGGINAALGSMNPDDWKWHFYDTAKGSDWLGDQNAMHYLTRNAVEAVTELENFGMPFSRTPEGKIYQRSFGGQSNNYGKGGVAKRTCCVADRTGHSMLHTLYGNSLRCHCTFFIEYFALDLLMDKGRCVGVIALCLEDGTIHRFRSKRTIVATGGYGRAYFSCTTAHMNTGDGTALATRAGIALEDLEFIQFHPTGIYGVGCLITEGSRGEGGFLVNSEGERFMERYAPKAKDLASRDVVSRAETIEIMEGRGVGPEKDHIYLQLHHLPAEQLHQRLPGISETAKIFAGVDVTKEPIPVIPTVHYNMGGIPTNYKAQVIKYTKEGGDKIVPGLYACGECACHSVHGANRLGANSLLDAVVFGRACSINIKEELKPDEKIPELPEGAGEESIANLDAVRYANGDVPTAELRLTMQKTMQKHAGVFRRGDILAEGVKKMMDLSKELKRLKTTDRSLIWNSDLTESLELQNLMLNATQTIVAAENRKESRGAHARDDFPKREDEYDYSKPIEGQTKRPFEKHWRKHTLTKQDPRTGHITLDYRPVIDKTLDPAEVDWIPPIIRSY
Method: In Vitro Measurement of Inhibitory Activity on Ascaris suum Succinate-Ubiquinone Reductase (Mitochondrial Complex II)
as §1, with “adult Ascaris suum” for “porcine heart”
as §2

Haemonchus contortus = experiment: Larval migration inhibition assay (LMIA) on Haemonchus contortus; assay type: in vivo; details: third-stage larvae
Method: In Vivo Activity on Haemonchus contortus
The test was conducted according to the larval migration inhibition assay (LMIA: Demeler et al., 2010). A larval suspension was prepared so as to contain 100 to 120 third-stage larvae of Haemonchus contortus per 20 μL, and then 20 μL of the larval suspension was added to each well on a breeding plate to which compound solutions adjusted to predetermined concentrations were previously added at […] each. The breeding plate was maintained for breeding at 28° C. for 24 hours. Meanwhile, to a plate for larval migration observation, 400 μL of a 1.5% agar solution was added and left to stand until coagulation. Then, the larvae were allowed to migrate through a sieve from the breeding plate to the plate for larval migration observation, and the plates were maintained for breeding at 28° C. for another 24 hours. The larvae which had migrated, and the larvae which had not migrated were counted, the percentage of migration inhibition was calculated, and the activity was graded based on the following criterion. In the table, “-” indicates “not tested.”
Percentage of Migration Inhibition

[3] = at 90 μM, porcine heart muscle mitochondria
[4] = mitochondria from adult Ascaris suum muscle, read-out: Ascaris suum IC50 value (A)
[5] = at 9 μM, porcine heart muscle mitochondria
[6] = mitochondria from porcine heart muscle, read-out: Porcine mitochondria IC50 value (B)

Row | SMILES | Porcine mitochondria inhibition at 90 μM [1, 3] | IC50 [2, 4] [nM] | Selectivity B/A [2] | IC50 [2] [nM] | further results
1 | CC(C)(NC(=O)c1ccccc1C(F)(F)F)c1ccccc1 [Compound 2-3] | no inhibition at 90 μM | 127 | >709 |  | 
2 | O=C(NCCc1c(Cl)cc(C(F)(F)F)cc1Cl)c1ccccc1C(F)(F)F [Compound 1-110] |  |  | >2460 | 4.07 | Porcine mitochondria inhibition at 10 μM ([1]; at 10 μM, porcine heart muscle mitochondria): no inhibition at 10 μM
3 | O=C(NCCc1ccc(Cl)cc1)c1ccccc1C(F)(F)F [Compound 1-3] | no inhibition at 90 μM |  | >27000 | 1.21 | 
4 | CC(Cc1ccc(F)cc1F)NC(=O)c1ccccc1C(F)(F)F (stereo not drawn) [Compound 1-64] |  |  | >9150 | 9 | Porcine mitochondria inhibition at 9 μM [1, 5]: no inhibition at 9 μM
5 | O=C(NCCOc1ccc(Cl)cc1Cl)c1ccccc1C(F)(F)F [Compound 4-1] |  |  |  | 3.44 | Percentage of migration inhibition (grade) (Haemonchus contortus; 0.1 ppm): C (10 to 39%); Percentage of migration inhibition (grade) (Haemonchus contortus; 1 ppm): C (10 to 39%); Percentage of migration inhibition (grade) (Haemonchus contortus; 10 ppm): C (10 to 39%)
6 | O=C(NCCc1ccccc1)c1ccccc1C(F)(F)F [Compound 1-111] | no inhibition at 90 μM |  | >6870 | 13.1 | 
7 | CC(C)(CNC(=O)c1ccccc1C(F)(F)F)c1ccc(Cl)cc1Cl [Compound 1-112] | no inhibition at 90 μM |  | >60000 | 1.5 | 
8 | O=C(NCCCSc1ccc(Cl)cc1Cl)c1ccccc1C(F)(F)F [Compound 4-6] |  | 8.34 | >1079 |  | Porcine mitochondria inhibition at 9 μM [1, 5]: no inhibition at 9 μM
9 | Cc1ccc(OCCNC(=O)c2ccccc2C(F)(F)F)c(C)c1 [Compound 4-3] |  |  |  | 1.98 | 
10 | CC(NC(=O)c1ccccc1C(F)(F)F)c1ccc(Cl)cc1Cl (stereo not drawn) [Compound 2-7] | no inhibition at 90 μM | 14 | >6430 |  | 
11 | O=C(NCc1ccc(Cl)cc1Cl)c1ccccc1C(F)(F)F [Compound 2-6] | 10% at 90 μM | 28.3 | >3180 |  | Percentage of migration inhibition (grade) (Haemonchus contortus; 0.1 ppm): C (10 to 39%); Percentage of migration inhibition (grade) (Haemonchus contortus; 1 ppm): C (10 to 39%); Percentage of migration inhibition (grade) (Haemonchus contortus; 10 ppm): C (10 to 39%)
12 | Cc1ccc(SCCCNC(=O)c2ccccc2C(F)(F)F)c(C)c1 [Compound 4-5] | 11% at 90 μM | 6.07 | >14830 |  | 
13 | Cc1ccc(CCNC(=O)c2ccccc2C(F)(F)F)c(C)c1 [Compound 1-27] | no inhibition at 90 μM |  | >53300 | 1.69 | 
14 | CC(Cc1ccc(Cl)cc1Cl)NC(=O)c1ccccc1C(F)(F)F (stereo not drawn) [Compound 1-32] |  |  | >4190 | 2.15 | Porcine mitochondria inhibition at 9 μM [1, 5]: no inhibition at 9 μM; Percentage of migration inhibition (grade) (Haemonchus contortus; 0.1 ppm): C (10 to 39%); Percentage of migration inhibition (grade) (Haemonchus contortus; 1 ppm): C (10 to 39%); Percentage of migration inhibition (grade) (Haemonchus contortus; 10 ppm): B (40 to 69%)
15 | O=C(NC(c1ccc(Cl)cc1)C1CC1)c1ccccc1C(F)(F)F (stereo not drawn) [Compound 2-4] | no inhibition at 90 μM | 70.5 | >1280 |  | 
16 | CC(C)(C)c1ccc(CNC(=O)c2ccccc2C(F)(F)F)cc1 [Compound 2-1] |  | 5.47 | 20295 |  | IC50 [1, 6]: 111 µM; Percentage of migration inhibition (grade) (Haemonchus contortus; 0.1 ppm): C (10 to 39%); Percentage of migration inhibition (grade) (Haemonchus contortus; 1 ppm): B (40 to 69%)
17 | O=C(NCCCc1ccc(Cl)cc1Cl)c1ccccc1C(F)(F)F [Compound 4-7] |  |  | 57870 | 1.78 | IC50 [1, 6]: 103 µM; Percentage of migration inhibition (grade) (Haemonchus contortus; 0.1 ppm): C (10 to 39%); Percentage of migration inhibition (grade) (Haemonchus contortus; 1 ppm): C (10 to 39%); Percentage of migration inhibition (grade) (Haemonchus contortus; 10 ppm): C (10 to 39%); Percentage of migration inhibition (grade) (Haemonchus contortus; 100 ppm): B (40 to 69%)
18 | O=C(NCCc1ncc(C(F)(F)F)cc1Cl)c1ccccc1C(F)(F)F [Compound 3-7] |  |  | 56250 | 1.6 | IC50 [1]: 90 µM; Percentage of migration inhibition (grade) (Haemonchus contortus; 0.1 ppm): C (10 to 39%); Percentage of migration inhibition (grade) (Haemonchus contortus; 1 ppm): C (10 to 39%); Percentage of migration inhibition (grade) (Haemonchus contortus; 10 ppm): C (10 to 39%); Percentage of migration inhibition (grade) (Haemonchus contortus; 100 ppm): B (40 to 69%)
19 | CC(CCc1ccc(Cl)cc1Cl)NC(=O)c1ccccc1C(F)(F)F (stereo not drawn) [Compound 4-8] |  |  | >3448 | 2.61 | inhibition at 9 µM [1, 5]: 5%
20 | CC(C)(Cc1ccc(Cl)c(Cl)c1)NC(=O)c1ccccc1C(F)(F)F [Compound 1-88] |  |  |  | 12 | 
21 | CC(NC(=O)c1ccccc1C(F)(F)F)c1ccc(Cl)cc1 (stereo not drawn) [Compound 2-8] | no inhibition at 90 μM | 38.2 | >2360 |  | 
22 | CC(COc1ccc(Cl)cc1Cl)NC(=O)c1ccccc1C(F)(F)F (stereo not drawn) [Compound 4-2] |  |  |  | 5.15 | 
23 | CC(Cc1ccc(Cl)c(Cl)c1)NC(=O)c1ccccc1C(F)(F)F (stereo not drawn) [Compound 1-81] |  |  | >18800 | 4.8 | inhibition at 90 µM [1, 3]: 10%
24 | O=C(NCCCOc1ccc(Cl)cc1Cl)c1ccccc1C(F)(F)F [Compound 4-4] | 16% at 90 μM | 8.36 | >10770 |  | 
25 | Cc1cc(CNC(=O)c2ccccc2C(F)(F)F)ccc1-c1ccc(OC(F)(F)F)cc1 [Compound 2-5] |  | 3.83 | >2350 |  | Porcine mitochondria inhibition at 9 μM [1, 5]: no inhibition at 9 μM
26 | O=C(NCCc1ccc(Cl)cc1Cl)c1ccccc1C(F)(F)F [Compound 1-16] | no inhibition at 90 μM |  | >74400 | 3.34 | Percentage of migration inhibition (grade) (Haemonchus contortus; 0.1 ppm): C (10 to 39%); Percentage of migration inhibition (grade) (Haemonchus contortus; 1 ppm): C (10 to 39%); Percentage of migration inhibition (grade) (Haemonchus contortus; 10 ppm): C (10 to 39%); Percentage of migration inhibition (grade) (Haemonchus contortus; 100 ppm): B (40 to 69%)
